This note sets out measurements from patent publication US9174939B2, “Soft rock inhibitors” (Amakem NV, priority 2011, dated 2015).

One data set has as its target ROCK II (Homo sapiens, UniProt O75116). Description: Kinase inhibition (ROCKI or ROCKII), 33P-ATP filter assay. It counts as biochemical. The settings on record: 120 min at room temperature. The procedure: C.1.1. Kinase inhibition (ROCKI or ROCKII)
Base Reaction buffer; 20 mM Hepes (pH 7.5), 10 mM MgCl2, 1 mM EGTA, 0.02% Brij35, 0.02 mg/ml BSA, 0.1 mM Na3VO4, 2 mM DTT, 1% DMSO—Required cofactors are added individually to each kinase reaction • Reaction Procedure: • 1. Prepare indicated substrate in freshly prepared Base Reaction Buffer • 2. Deliver any required cofactors to the substrate solution above • 3. Deliver indicated kinase into the substrate solution and gently mix • 4. Deliver compounds in DMSO into the kinase reaction mixture • 5. Deliver ^33P-ATP (specific activity 0.01 μCi/μl final) into the reaction mixture to initiate the reaction. • 6. […] Wash filters extensively in 0.1% Phosphoric acid.

Data set [1] can be described thus: Stability assay in rabbit aqueous humor. It counts as in vitro ADME. Conditions: 1 μM in rabbit aqueous humor, LC-MS/MS; read-out: t½ Rabbit AH. Here is the method: C.2.3. Stability Assay in Rabbit Aqueous Humor
Compounds are incubated at a concentration of 1 μM in rabbit aqueous humor (AH). Samples are taken at fixed time points and the remnant of compound is determined by LC-MS/MS after protein precipitation.

Data set [2] in a line: Stability towards drug metabolizing enzymes in lung S9. It counts as in vitro ADME. Conditions: human, lung S9 (from smokers) with NADPH, UDPGA, PAPS and GSH, read-out: t½ human lung S9. The procedure:
C.2.2. Stability Towards Drug Metabolizing Enzymes in Lung S9
A 1 μM solution of the ROCK inhibitors is incubated with a reaction mixture containing lung S9 (from smokers) as well as the cofactors NADPH, UDPGA, PAPS and GSH. Samples are collected at 0, 15, 30 and 60 minutes post incubation. Negative control samples incubated with ROCK inhibitors and S9 fraction in the absence of cofactors are run in parallel. By using LC-MS/MS analysis, the percent of ROCK compounds remaining at each time point, the metabolic half-life of the ROCK compounds (expressed in minutes) and the metabolic half-life of the control compounds are determined.

In data set [3] the test system is MLC-T18/S19 phosphorylation by endogenous ROCK in A7r5 cells. Kind of data set: Myosin Light Chain Phosphorylation assay (ELISA, A7r5 cells). Type of data set: cell-based. Conditions: A7r5 rat smooth muscle cells, serum-free medium, phospho-MLC-T18/S19 ELISA. The procedure: C.1.4. Myosin Light Chain Phosphorylation assay
Rat smooth muscle cell line A7r5 is used. The endogenous expression of ROCK results in a constitutive phosphorylation of the regulatory myosin light chain at T18/S19. A7r5 cells were plated in DMEM supplemented with 10% FCS in multiwall cell culture plates. After serum starvation overnight, cells were incubated with compounds in serum-free medium.
Quantification of MLC-T18/S19 phosphorylation is assessed in 96 well-plates via ELISA using a phspho-MLC-T18/S19 specific antibody and a secondary detection antibody. Raw data were converted into percent substrate phosphorylation relative to high controls, which were set to 100%. IC50 values were determined using GraphPad Prism 5.01 software using a nonlinear regression curve fit with variable hill slope.

Data set [4] can be described thus: Stability assay in human plasma. It counts as in vitro ADME. Conditions: 1 μM compound in human plasma, LC-MS/MS; read-out: t½ human plasma. The procedure: C.2.1. Stability Assay in Human and/or Rat Plasma
Compounds are incubated at a concentration of 1 μM in rat (mice, dog, monkey, minipig or rabbit) or human plasma. Samples are taken at fixed time points and the remnant of compound is determined by LC-MS/MS after protein precipitation. Half life is expressed in minutes.

The structures appear in SMILES notation.

Chain of ROCK II (O75116 whole entry): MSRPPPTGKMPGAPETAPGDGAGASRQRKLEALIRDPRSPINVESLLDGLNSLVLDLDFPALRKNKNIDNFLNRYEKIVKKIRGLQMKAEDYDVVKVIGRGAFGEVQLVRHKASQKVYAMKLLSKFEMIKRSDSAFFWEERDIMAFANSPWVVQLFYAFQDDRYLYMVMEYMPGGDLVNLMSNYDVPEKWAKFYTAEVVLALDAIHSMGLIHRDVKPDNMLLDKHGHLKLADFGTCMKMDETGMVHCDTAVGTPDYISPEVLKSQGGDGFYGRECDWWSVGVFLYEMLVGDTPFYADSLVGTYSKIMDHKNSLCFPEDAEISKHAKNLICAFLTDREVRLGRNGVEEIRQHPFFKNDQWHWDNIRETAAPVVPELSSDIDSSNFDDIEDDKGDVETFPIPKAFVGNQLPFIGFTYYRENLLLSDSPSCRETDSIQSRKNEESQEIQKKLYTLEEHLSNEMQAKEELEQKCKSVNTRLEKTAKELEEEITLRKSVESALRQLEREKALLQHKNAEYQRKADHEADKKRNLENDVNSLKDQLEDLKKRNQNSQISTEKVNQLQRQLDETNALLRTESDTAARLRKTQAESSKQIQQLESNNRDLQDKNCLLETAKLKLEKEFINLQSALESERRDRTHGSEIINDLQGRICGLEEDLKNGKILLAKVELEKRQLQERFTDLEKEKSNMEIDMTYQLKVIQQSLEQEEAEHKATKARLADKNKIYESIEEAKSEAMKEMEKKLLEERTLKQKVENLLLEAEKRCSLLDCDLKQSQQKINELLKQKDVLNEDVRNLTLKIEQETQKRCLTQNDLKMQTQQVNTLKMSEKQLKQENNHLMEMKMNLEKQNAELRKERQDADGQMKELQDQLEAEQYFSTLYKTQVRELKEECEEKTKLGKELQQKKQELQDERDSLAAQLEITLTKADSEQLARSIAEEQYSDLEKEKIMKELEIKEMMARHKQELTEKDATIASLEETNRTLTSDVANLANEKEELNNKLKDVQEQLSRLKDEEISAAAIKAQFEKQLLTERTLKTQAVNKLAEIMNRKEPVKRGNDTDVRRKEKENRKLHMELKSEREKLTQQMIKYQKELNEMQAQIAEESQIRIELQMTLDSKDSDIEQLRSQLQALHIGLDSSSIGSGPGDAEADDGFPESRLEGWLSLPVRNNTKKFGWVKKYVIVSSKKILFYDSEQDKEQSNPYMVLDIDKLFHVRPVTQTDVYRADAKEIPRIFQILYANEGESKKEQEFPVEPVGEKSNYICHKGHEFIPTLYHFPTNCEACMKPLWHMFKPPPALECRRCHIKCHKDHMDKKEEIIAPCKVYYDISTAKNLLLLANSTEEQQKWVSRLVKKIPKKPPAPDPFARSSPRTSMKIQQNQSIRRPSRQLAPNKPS

As usually defined, the IC50 is the point on the concentration scale where inhibition reaches its midpoint. Lower therefore signals greater potency. In the case of `COC(=O)c1cccc(NC(=O)c2cccc(-c3cc(C(=O)Nc4ccncc4F)ccc3CN)c2)c1` [Compound 1], the results for the IC50 (at ROCK II; in data set [3]) were less than 10 nM and less than 200 nM, respectively. Besides, the half-life at 1 μM is more than 1 h in data set [1], more than 0.5 h in data set [2] and less than 0.0833 h in data set [4].
As to `COC(=O)Cc1cccc(NC(=O)c2cccc(-c3cc(C(=O)Nc4ccncc4F)ccc3CN)c2)c1` [Compound 2], the concentration for half-maximal inhibition (IC50) against ROCK II was less than 10 nM; in data set [3], less than 200 nM.
Consider `COC(=O)c1ccc(NC(=O)c2cccc(-c3cc(C(=O)Nc4ccncc4F)ccc3CN)c2)cc1` [Compound 3], for which the figures for the half-inhibitory concentration (IC50) (at ROCK II; in data set [3]) were less than 10 nM and less than 200 nM, respectively.
In the same order, the values of `COC(=O)Cc1ccc(NC(=O)c2cccc(-c3cc(C(=O)Nc4ccncc4F)ccc3CN)c2)cc1` [Compound 4] are less than 10 nM and less than 200 nM.
For the molecule `NCc1ccc(C(=O)Nc2ccncc2F)cc1-c1cccc(NC(=O)c2ccc3c(c2)COC3=O)c1` [Compound 5], the 50% inhibitory concentration (IC50) at ROCK II was less than 10 nM. Also, in data set [4], the half-life at 1 μM is less than 1 h.
For the molecule `COC(=O)c1ccc(F)c(NC(=O)c2cccc(-c3cc(C(=O)Nc4ccncc4F)ccc3CN)c2)c1` [Compound 6], the values for the IC50 (against ROCK II; in data set [3]) were less than 10 nM and less than 200 nM, respectively. Besides, the half-life at 1 μM in data set [4] was less than 1 h.
Turning to `COC(=O)c1cncc(NC(=O)c2cccc(-c3cc(C(=O)Nc4ccncc4F)ccc3CN)c2)c1` [Compound 7], on ROCK II, the IC50 was less than 10 nM.
With `CCCOC(=O)c1cccc(NC(=O)c2cccc(-c3cc(C(=O)Nc4ccncc4F)ccc3CN)c2)c1` [Compound 8], the half-maximal inhibitory concentration (IC50) was less than 10 nM against ROCK II and less than 200 nM in data set [3]. The half-life at 1 μM in data set [1] was more than 1 h; in data set [4], less than 0.0833 h.
For the molecule `COC(=O)c1cc(F)cc(NC(=O)c2cccc(-c3cc(C(=O)Nc4ccncc4F)ccc3CN)c2)c1` [Compound 9], on ROCK II, the half-inhibitory concentration (IC50) is less than 10 nM.
Turning to `CCCOC(=O)c1cc(F)cc(NC(=O)c2cccc(-c3cc(C(=O)Nc4ccncc4F)ccc3CN)c2)c1` [Compound 10], the IC50 is less than 100 nM on ROCK II and less than 200 nM in data set [3].
On ROCK II, `COC(=O)c1csc(NC(=O)c2cccc(-c3cc(C(=O)Nc4ccncc4F)ccc3CN)c2)n1` [Compound 11] yielded an IC50 of less than 10 nM.
Take `CCCOC(=O)c1ccc(F)c(NC(=O)c2cccc(-c3cc(C(=O)Nc4ccncc4F)ccc3CN)c2)c1` [Compound 12]: the concentration for half-maximal inhibition (IC50) on ROCK II was less than 10 nM; in data set [3], less than 200 nM.
With `COC(=O)c1ccc(NC(=O)c2cccc(-c3cc(C(=O)Nc4ccncc4F)ccc3CN)c2)cc1C` [Compound 13], the IC50 on ROCK II was less than 10 nM.
Still for that read-out and setting: then `CCOC(=O)c1nnc(NC(=O)c2cccc(-c3cc(C(=O)Nc4ccncc4F)ccc3CN)c2)o1` [Compound 14], with less than 10 nM; and `COC(=O)c1ccc(NC(=O)c2cccc(-c3cc(C(=O)Nc4ccncc4F)ccc3CN)c2)o1` [Compound 15], with less than 10 nM.
Same read-out and setting: then `COC(=O)c1ccc(C(=O)Nc2cccc(-c3cc(C(=O)Nc4ccncc4F)ccc3CN)c2)cc1` [Compound 16], with less than 10 nM.
Turning to `COC(=O)c1cccc(C(=O)Nc2cccc(-c3cc(C(=O)Nc4ccncc4F)ccc3CN)c2)c1` [Compound 17], the IC50 against ROCK II was less than 10 nM; in data set [3], less than 200 nM.
In turn, `COC(=O)c1ccc(C(=O)Nc2cccc(-c3cc(C(=O)Nc4ccncc4F)ccc3CN)c2)nc1` [Compound 18] came in with an IC50 against ROCK II of less than 10 nM.
Same read-out and setting: for `CCCOC(=O)Cc1cccc(NC(=O)c2cccc(-c3cc(C(=O)Nc4ccncc4F)ccc3CN)c2)c1` [Compound 19] the value was less than 10 nM.
The same measure, in the same setting: for `COC(=O)c1cc(NC(=O)c2cccc(-c3cc(C(=O)Nc4ccncc4F)ccc3CN)c2)ccc1C` [Compound 20] the value was less than 10 nM; for `CCCOC(=O)c1ccc(NC(=O)c2cccc(-c3cc(C(=O)Nc4ccncc4F)ccc3CN)c2)cc1C` [Compound 21], less than 10 nM.
As to `CCCOC(=O)c1cc(NC(=O)c2cccc(-c3cc(C(=O)Nc4ccncc4F)ccc3CN)c2)ccc1C` [Compound 22], the concentration for half-maximal inhibition (IC50) on ROCK II was less than 10 nM.
